Experiment [1] relates to SRS-A induced bronchoconstriction. In words: TEST H experiment 2: Suppression of SRS-A Induced Bronchoconstriction (tracheal instillation, inhaled ovalbumin). Particulars: Cavia porcellus, i.t., hydrogen-oxalate salt. Format: in vivo, guinea pig (Dunkin-Hartley). On the procedure: TEST H: Suppression of SRS-A Induced Bronchoconstriction
Guinea pigs (Dunkin-Hartley, male, 400-600 g) are anesthethized with phenobarbital (100 mg/kg i.p.) and pentobarbital (30 mg/kg i.p.) and paralyzed with gallamine (100 mg/kg i.m.) Animals are ventilated via a tracheal cannula (8 ml/kg, 1 Hz) with a mixture of air and oxygen (45:55 v/v). Blood pressure and heart rate are recorded at the carotid artery. Ventilation is monitored by a Fleisch flow transducer in line with the inspiratory circuit. When making measurements of flow, coincident pressure changes in the thorax are monitored directly via an intrathoracic trochar, permitting display of differential pressure relative to the trachea. From this information in relation to flow and differential pressure, resistance [R1 ] and compliance [Cdyn ] are calculated using a digital respiratory analyzer for each respiratory cycle.
Test animals are passively sensitized 24 hrs. prior to testing by administration of homologous anti-ovalbumin antiserum (1 ml i.v.). […] Allergen challenge is achieved by administration of ovalbumin (OA) and the resultant bronchoconstrictor response is used as a functional read-out of SRS-A activity.
2) In the second, animals are challenged with OA (1.0 or 1.8 mg/ml inhaled over 60 breaths) and the effect of test compound, administered at varying dosage directly into the lung by tracheal instillation, is measured.

The test system of experiment [2] is methacholine induced bronchoconstriction. In words: TEST J: Suppression of Methacholine (MeCH) Induced Broncho-Constriction in the Rhesus Monkey. In kind it is in vivo. Particulars: hydrogen-oxalate salt. As for the experimental part:
TEST J: Suppression of Methacholine (MeCH) Induced Broncho-Constriction in the Rhesus Monkey
Male rhesus monkeys (body weight 10.3-13.2 kg) are anesthetized with ketamine (20 mg/kg i.m., initial) and maintained with thiopental (8 mg/kg/h i.v.) via an indwelling catheter in the left saphenous vein, throughout the experimental procedure. Animals are allowed to breathe spontaneously, and are placed in the left lateral incumbent position. The larynx, eppiglottis and pharynx are anesthetized (topical xylocaine) allowing introduction and placement of a cuffed 4.5 mm pediatric endotracheal tube.
MeCH is administered as an aerosol (saline vehicle: aerosol generated by a nebulizer operated under an airflow of 6 l/min, mean particle size of 3.5 μm) with a 2 minute exposure, tidal breathing. All tests employ a 0.6 mg/ml solution or 2.5 mg/ml solution in the case of poor MeCH responders. MeCH bronchoconstrictor tests are spaced 30 min apart, with administration of test substance (in a lactose vehicle suspension, 1 mg/ml, 1 ml administered under bronchoscopic control, 1 cm above the carina) 15 min prior to MeCH challenge.
Test substance is administered in a cumulative manner. Bronchodilator activity is estimated as the % inhibition of bronchoconstrictor response to MeCH on resistance.

The next experiment has as its system PDE IV. In words: inhibition of PDE IV added to plasma after administration to conscious dogs. In kind it is in vivo. Particulars: up to 0.3 mg/kg i.v. or 0.6 mg/kg p.o., hydrogen-oxalate salt.

Where two headings read alike, the source gives them in different places.

As to `CCc1cc2cc(OCCO)c(OC)cc2c(-c2cc(OC(C)C)cc(OC(C)C)c2)n1` [Example 1, 1-(3,5-diisopropoxyphenyl)-3-ethyl-6-(2-hydroxyethoxy)-7-methoxy-isoauinoline], the ED50 was 5 µg/kg in experiment [1] (ovalbumin 1 mg/ml, read-out: ED50 vs. ovalbumin @1 mg/ml) and 50 µg/kg in experiment [1] (ovalbumin 1.8 mg/ml, read-out: ED50 vs. ovalbumin @1.8 mg/ml). The ED20 in experiment [2] (Macaca mulatta, inhaled or nasal, MeCH aerosol, test substance in lactose suspension) worked out at 0.0414 ± 0.0099 µg/kg. Also, in experiment [2] (times less potent than Albuterol), the “potency less than that of Albuterol (TEST J)” value is “ca. 3.5 ×”. In addition, the “inhibition of PDE IV added to plasma” value with PDE IV is “substantial and long-lasting inhibition”.
